Where two headings read alike, the source gives them in different places. Blank lines part the entries; values can stand above or below the compound they belong to.
Legend:
[1] = Caco-2 bidirectional permeability assay; type: in vitro ADME; details: human
Method: (§1) Briefly, the compound was incubated with human or mouse microsomes in the presence or absence of NADPH. […] Data were converted to percent remaining by dividing by the time zero concentration value. In vitro half-life was determined based on the slope of the (first-order) decay curve and this value was converted to intrinsic clearance (CLint). […] Briefly, Caco-2 cells were plated in Millipore 96-well transwell plates and allowed to differentiate for 21 days to form polarized, epithelial monolayers. For apical to basolateral (A→B) permeability, the compound was added to the apical (A) side and amount permeation determined on the basolateral (B) side. For B→A permeability, the compound was added on the basolateral (B) side. Upon completion of the incubation (2 hr), the receiver side buffer was removed for analysis by LC-MS/MS. From the samples, apparent permeability rate coefficients (Papp values) and efflux ratios were determined for the compound.

JNK = assay: Basal pJNK western blot in BV2 cells; type: cell-based, murine; details: 0.5nM to 50 μM, 1h
Method: (§2) BV2 cells were harvested and counted before stimulation. The cells were untreated (control), vehicle-treated (DMSO), or treated with increasing concentrations (0.5nM, 5nM, 50nM, 0.5 μM, 5μM and 50 μM) of LDDN-0003499, LDDN-0075935, LDDN-0125694 or LDDN-0127164 for 24h to assess toxicity and 1 hour to assess effects on basal kinase activity. For secretion analyses, cells were pretreated with drugs for 1 hour prior to stimulation with 50nM Aβ (overnight) or 25ng/mL LPS (overnight) in the presence of the drugs in serum free DMEM/F12. Media were collected for ELISA analysis and for LDH release viability assays. For signaling analyses, cells were pretreated with drugs for 1 hour prior to 5 minute stimulation with 1μM Aβ 1–42. […] Protein concentrations were determined using the Bradford method.
(§3) Cell lysates were resolved by SDS-PAGE on 10% polyacrylamide gels and transferred to PVDF membranes. […] Blots were washed followed by incubation with HRP-conjugated secondary antibodies and antibody binding was detected via enhanced chemiluminescence (GE Healthcare, Piscataway, NJ). Western blots were quantified using Adobe Photoshop software. […]

Src [2] = biological target: T1, Src (Mus musculus, UniProt P05480); assay: Basal pSrc (Tyr 416) western blot in BV2 cells; type: cell-based, murine; details: 0.5nM to 50 μM, 1h
T1 construct: endogenous in cells; host or cells: BV2 murine microglial cell line
T1 sequence (P05480 whole entry): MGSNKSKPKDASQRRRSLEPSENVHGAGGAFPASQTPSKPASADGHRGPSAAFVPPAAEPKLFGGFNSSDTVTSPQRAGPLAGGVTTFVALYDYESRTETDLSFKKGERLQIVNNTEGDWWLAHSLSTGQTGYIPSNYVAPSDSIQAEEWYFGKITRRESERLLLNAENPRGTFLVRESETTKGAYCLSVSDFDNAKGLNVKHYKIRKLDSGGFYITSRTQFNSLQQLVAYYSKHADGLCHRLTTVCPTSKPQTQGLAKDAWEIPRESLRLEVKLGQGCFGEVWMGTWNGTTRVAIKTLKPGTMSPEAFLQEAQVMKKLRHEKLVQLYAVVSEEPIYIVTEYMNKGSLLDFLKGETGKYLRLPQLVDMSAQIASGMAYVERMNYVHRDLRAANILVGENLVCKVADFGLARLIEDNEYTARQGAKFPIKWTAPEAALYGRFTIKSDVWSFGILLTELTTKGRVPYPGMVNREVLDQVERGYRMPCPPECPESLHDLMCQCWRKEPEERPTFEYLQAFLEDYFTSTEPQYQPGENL
Method: as §2, §3

Lyn [3] = biological target: T2, Lyn (Mus musculus, UniProt P25911); assay: Basal pLyn (Tyr 396) western blot in BV2 cells; type: cell-based, murine; details: 0.5nM to 50 μM, 1h
T2 construct: endogenous in cells; host or cells: BV2 murine microglial cell line
T2 sequence (P25911 whole entry): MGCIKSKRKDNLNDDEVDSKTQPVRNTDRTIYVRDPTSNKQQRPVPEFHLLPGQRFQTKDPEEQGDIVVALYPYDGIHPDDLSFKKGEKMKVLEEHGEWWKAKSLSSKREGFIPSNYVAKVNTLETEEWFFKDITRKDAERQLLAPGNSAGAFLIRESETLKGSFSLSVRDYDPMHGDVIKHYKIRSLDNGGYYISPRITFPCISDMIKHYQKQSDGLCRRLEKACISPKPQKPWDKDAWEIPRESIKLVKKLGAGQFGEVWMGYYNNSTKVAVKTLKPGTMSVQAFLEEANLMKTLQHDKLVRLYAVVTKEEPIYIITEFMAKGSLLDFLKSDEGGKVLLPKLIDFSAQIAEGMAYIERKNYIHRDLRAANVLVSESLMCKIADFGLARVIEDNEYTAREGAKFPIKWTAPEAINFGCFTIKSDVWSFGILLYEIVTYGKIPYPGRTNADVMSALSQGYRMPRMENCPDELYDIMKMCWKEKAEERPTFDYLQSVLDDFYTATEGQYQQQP
Method: as §2, §3

[4] = test system: total protein phosphotyrosine levels in BV2 cells; assay: Total protein phosphotyrosine western blot (4G10), basal; type: cell-based, murine; details: 0.5nM to 50 μM, 1h, vs vehicle
Method: as §2, §3

microglial BV2 cells = assay: LDH release cell viability assay; type: cell-based, murine; details: 0.5nM to 50 μM, 24h
Method: as §2
For the lactate dehydrogenase release (LDH) assay, media following the 24 hour cell stimulations were transferred onto a new 96-well plate and LDH concentrations assayed according to manufacturer instructions (Promega Corporation, Madison, WI). Background absorbance was subtracted from each condition. All absorbance values for the LDH assay were averaged and plotted ±SD.

ERK [5] = assay: Basal pERK western blot in BV2 cells; type: cell-based, murine; details: 0.5nM to 50 μM, 1h
Method: as §2, §3

p38 = assay: Basal p-p38 western blot in BV2 cells; type: cell-based, murine; details: 0.5nM to 50 μM, 1h
Method: as §2, §3

Caco-2 cells = assay: Caco-2 bidirectional permeability assay; type: in vitro ADME; details: Caco-2, 10 μM, 2 hr
Method: as §1

[6] = Microsomal stability / intrinsic clearance assay, human; type: in vitro ADME; details: liver microsomes
Method: as §1

[7] = Microsomal stability / intrinsic clearance assay, mouse; type: in vitro ADME; details: liver microsomes
Method: as §1

Src [8] = biological target: T1, Src; assay: Aβ-stimulated pSrc western blot in BV2 cells; type: cell-based, murine; details: 1h pretreatment, 1 μM Aβ 1-42 for 5 minutes
Method: (§4) BV2 cells were harvested and counted before stimulation. The cells were untreated (control), vehicle-treated (DMSO), or treated with increasing concentrations (0.5nM, 5nM, 50nM, 0.5 μM, 5μM and 50 μM) of […]-0125694 or LDDN-0127164 for 24h to assess toxicity and 1 hour to assess effects on basal kinase activity. […] Media were collected for ELISA analysis and for LDH release viability assays. For signaling analyses, cells were pretreated with drugs for 1 hour prior to 5 minute stimulation with 1μM Aβ 1-42. […] Protein concentrations were determined using the Bradford method. Cell lysates were resolved by SDS-PAGE on 10% polyacrylamide gels and transferred to PVDF membranes. Western blots were blocked with 3% bovine serum albumin and incubated in anti-phospho-[…][…]), anti-pSrc ([…]), anti-pERK, anti-pLyn ([…]), anti-pJNK, and anti-phospho-p38 primary antibodies with anti-α-tubulin, Src, ERK2, Lyn, JNK, and p38 antibodies used as the respective loading controls. Blots were washed followed by incubation with HRP-conjugated secondary antibodies and antibody binding was detected via enhanced chemiluminescence (GE Healthcare, Piscataway, NJ). Western blots were quantified using Adobe Photoshop software. Optical densities of bands were normalized using their appropriate loading controls and averaged (±) SD.

IL-6 secretion = assay: Aβ-stimulated IL-6 secretion ELISA in BV2 cells; type: cell-based, murine; details: 1h pretreatment, 50nM Aβ 1-42, 24h
Method: as §2
(§5) Media were collected from BV2 cells following 24 hour stimulations for ELISA analyses. Levels of mouse TNF-α, IL-6, and IL-1β in the media were determined using commercially available ELISA kits according to the manufacturer’s protocol (R&D Systems).

ERK [9] = assay: Aβ-stimulated pERK western blot in BV2 cells; type: cell-based, murine; details: 1h pretreatment, 1 μM Aβ
Method: as §4

TNF-α secretion [10] = assay: LPS-stimulated TNF-α secretion ELISA in BV2 cells; type: cell-based, murine; details: 1h pretreatment, 25ng/ml LPS, 24h
Method: as §2, §5

TNF-α secretion [11] = assay: Aβ-stimulated TNF-α secretion ELISA in BV2 cells; type: cell-based, murine; details: 1h pretreatment, 50nM Aβ 1-42, 24h
Method: as §2, §5

Lyn [12] = biological target: T2, Lyn; assay: Aβ-stimulated pLyn western blot in BV2 cells; type: cell-based, murine
Method: as §4

[13] = read-out: NADPH-Dependent CLint

- Papp A→B at 2 hr, 10 μM ([1]; Caco-2): 27.1 ×10⁻⁶ cm/s
- Papp B→A at 2 hr, 10 μM ([1]; Caco-2): 10.4 ×10⁻⁶ cm/s
SMILES: CC(=O)CC(c1ccccc1)c1c(O)c2ccccc2oc1=O (stereo not drawn) [warfarin, reference compound]

- active, phosphorylated Src (pSrc) protein levels (Src [2]): not able to attenuate
- active, phosphorylated Lyn (pLyn) protein levels (Lyn [3]): not able to attenuate
SMILES: O=C(Nc1cc(Cl)ccc1Cl)c1noc2c1CCC2 [LDDN-0075935]
- phosphorylated JNK (pJNK) protein levels (JNK): did not attenuate
- total protein phosphotyrosine levels [4]: no effect
- toxicity to microglial BV2 cells (LDH release, cell viability) (microglial BV2 cells): not toxic
- phosphorylated ERK (pERK) protein levels (ERK [5]): stimulated increased pERK protein levels at the highest drug concentration
- phosphorylated p38 (p-p38) protein levels (p38): did not attenuate

- Caco-2 permeability, comment (Caco-2 cells): high permeability
- efflux ratio at 2 hr, 10 μM ([1]; Caco-2, 10 μM, 2 hr, read-out: Efflux Ratio Papp(B→A) / Papp(A→B)): 0.85
- Papp A→B at 2 hr, 10 μM ([1]; Caco-2, 10 μM, 2 hr, read-out: mean A→B Papp): 19 ×10⁻⁶ cm/s
- Papp B→A at 2 hr, 10 μM ([1]; Caco-2, 10 μM, 2 hr, read-out: mean B→A Papp): 16.2 ×10⁻⁶ cm/s
- half-life at 1 μM ([6]; read-out: NADPH-Depend. T1/2): 14.1 min
- microsomal CLint at 1 μM [6, 13]: 98.4 µL/min/mg
- microsomal CLint at 1 μM ([6]; read-out: NADPH-Free CLint): 21.2 µL/min/mg
- half-life at 1 μM ([6]; read-out: NADPH-Free T1/2): 65 min
- active, phosphorylated Src (pSrc) protein levels (Src [2]): dose-dependent decrease
- half-life at 1 μM ([7]; read-out: NADPH-Depend. T1/2): 16.6 min
- microsomal CLint at 1 μM [7, 13]: 83.3 µL/min/mg
- microsomal CLint at 1 μM ([7]; read-out: NADPH-Free CLint): 15.8 µL/min/mg
- half-life at 1 μM ([7]; read-out: NADPH-Free T1/2): 88 min
- concentration required to attenuate the Aβ stimulated increase in pSrc (Src [8]): 500 nM
- active, phosphorylated Lyn (pLyn) protein levels (Lyn [3]): dose-dependent decrease
- selectivity for Lyn versus Src in the Aβ stimulation paradigm (Lyn [12]; 50nM (pLyn) vs 500nM (pSrc)): tenfold
- concentration sufficient to significantly attenuate the Aβ stimulated increase in pLyn levels (Lyn [12]; 1h pretreatment, 1 μM Aβ 1-42 for 5 minutes): 50 nM
SMILES: COc1cc2ncnc(Nc3ccc(Cl)cc3Cl)c2cc1OC [LDDN-0003499]
- phosphorylated JNK (pJNK) protein levels (JNK): no ability to alter
- Aβ stimulated IL-6 secretion (IL-6 secretion): dose-dependently inhibited
- total protein phosphotyrosine levels [4]: significantly decrease the total protein phosphotyrosine levels in a dose-dependent manner
- toxicity to microglial BV2 cells (LDH release, cell viability) (microglial BV2 cells): not toxic
- phosphorylated ERK (pERK) protein levels (ERK [5]): no ability to alter
- pERK levels following Aβ stimulation (ERK [9]): no inhibition
- LPS stimulated TNF-α secretion (TNF-α secretion [10]): attenuated
- phosphorylated p38 (p-p38) protein levels (p38): no ability to alter
- Aβ stimulated TNF-α secretion (TNF-α secretion [11]): dose-dependently inhibited
- concentration at which inhibition of Aβ stimulated TNF-α secretion begins (TNF-α secretion [11]): 500 nM

Source: publication PMC4498792, “Characterization of Novel Src Family Kinase Inhibitors to Attenuate Microgliosis” (PLoS ONE, 2015)
